{
  "source": "patent US6709818B1",
  "about": "“Methods of diagnosing and treating hepatic cell proliferative disorders” (The Johns Hopkins University School of Medicine, priority 1999, dated 2004)",
  "key": {"[1]": {"tested_on": "GSTP1 mRNA expression in Hep3B HCC cells", "assay": "Northern blot analysis of GSTP1 mRNA expression by Hep3B cells treated with 5-aza-dC", "conditions": "for GSTP1 mRNA expression (Northern blot): Hep3B HCC cells treated in vitro, 72 hours"}, "GSTP1 promoter alleles": {"tested_on": "GSTP1 promoter alleles", "assay": "Southern blot analysis of GSTP1 \"CpG island\" DNA hypermethylation in Hep3B cells treated with 5-aza-dC", "format": "cell-based, human", "conditions": "Hep3B HCC cells treated in vitro, 72 hours", "description": "DNA isolated from Hep3B cells before and after exposure to 5-aza-dC in vitro was assessed for GSTP1 “CpG island” DNA hypermethylation using Southern blot analysis. Purified DNAs were digested first with HindIII and EcoRI and then extensively with the ^5-mC-sensitive restriction endonuclease BssHII. Digested DNAs were then electrophoresed on agarose gels, transferred to Zeta-Probe (DioRad) membranes, and then hybridized with ^32P-labeled GSTP1 cDNA DNA isolated from Hep3B HCC cells and from HCC and adjacent non-neoplastic tissues was also subjected to analysis for GSTP1 “CpG island” DNA hypermethylation using a ^5-mC-sensitive restriction endonuclease-polymerase chain reaction (PCR) strategy that permitted both detection of CpG dinucleotide methylation and simultaneous discrimination of maternal and paternal alleles in informative cases. […] To facilitate detection of the PCR amplification products, the downstream primer was end-labeled with [γ-^32P]ATP (Amersham) using T4 polynucleotide kinase (New England BioLabs). PCR was conducted by incubation at 95° C. for 1 min, 63° C. for 3 min, and 72° C. for 1.5 min, for 30 cycles followed by a final extension at 72° C. for 8 min. […]"}, "[2]": {"tested_on": "GSTP1 expression in Tsu-Prl PCA cells", "assay": "GSTP1 expression in Tsu-Prl PCA cells treated with 5-aza-dC", "format": "cell-based, human", "conditions": "Tsu-Prl PCA cells (unmethylated GSTP1 promoter alleles), treated as for Hep3B", "source_text": "Assessment of GSTP1 expression."}},
  "note": "Entries after “also recorded” stand apart in the source; their conditions may differ.",
  "data": [
    {"smiles": "Nc1ncn([C@H]2C[C@H](O)[C@@H](CO)O2)c(=O)n1", "note": "[5-aza-dC, 5-aza-deoxycytidine]", "values": [
      {"measurement": "time at which GSTP1 mRNA expression began to appear", "setting": "[1]; Hep3B HCC cells exposed for as long as 72 hours", "value": "≤ 24", "unit": "h"},
      {"measurement": "GSTP1 mRNA expression (Northern blot)", "setting": "[1]", "value": "reactivation of GSTP1 mRNA expression; also recorded: appearance of detectable GSTP1 mRNA"},
      {"measurement": "GSTP1 mRNA expression (Northern blot)", "setting": "[1]; listed as 5-aza-deoxycytidine", "value": "restored GSTP1 expression"},
      {"measurement": "GSTP1 \"CpG island\" / promoter allele methylation (Southern blot, BssHII digestion)", "setting": "GSTP1 promoter alleles", "value": "appearance of unmethylated GSTP1 promoter alleles"},
      {"measurement": "GSTP1 \"CpG island\" / promoter allele methylation (Southern blot, BssHII digestion)", "setting": "GSTP1 promoter alleles; listed as 5-aza-deoxycytidine", "value": "reversed GSTP1 “CpG island” hypermethylation"},
      {"measurement": "modulation of GSTP1 expression", "setting": "[2]", "value": "no modulation of GSTP1 expression was evident"}
    ]}
  ]
}
